In this assay the target is T1, hMCP-1 receptor, MCP-1 receptor B (CCR2B) (Homo sapiens, UniProt P41597).
T1 construct: expressed in transfected cells; host or cells: CHO-K1 (clone 7, CHO-CCR2B), membrane fragments
T1 sequence (P41597 1-360 isoform P41597-2): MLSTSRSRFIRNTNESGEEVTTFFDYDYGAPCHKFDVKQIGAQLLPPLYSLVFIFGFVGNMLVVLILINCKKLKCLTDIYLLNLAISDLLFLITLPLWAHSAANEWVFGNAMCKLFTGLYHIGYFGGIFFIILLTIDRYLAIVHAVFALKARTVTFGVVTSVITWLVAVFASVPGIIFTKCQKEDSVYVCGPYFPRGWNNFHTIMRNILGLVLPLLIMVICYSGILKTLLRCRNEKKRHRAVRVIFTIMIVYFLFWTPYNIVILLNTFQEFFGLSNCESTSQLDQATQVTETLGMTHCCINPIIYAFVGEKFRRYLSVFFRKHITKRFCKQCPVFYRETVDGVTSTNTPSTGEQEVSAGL
Put plainly: hMCP-1 receptor-binding assay. The following applies: competition with 100 pM 125I-labelled MCP-1, CHO-CCR2B cell membranes, concentration range 0.1-200 μM. An excerpt: a) hMCP-1 Receptor-binding Assay
The MCP-1 receptor B (CCR2B) cDNA was cloned by PCR from THP-1 cell RNA using suitable oligonucleotide primers based on the published MCP-1 receptor sequences (Charo et al., 1994, Proc. Natl. Acad. Sci. USA, 91, 2752). The resulting PCR products were cloned into vector PCR-II™ (InVitrogen, San Diego, Calif.). Error free CCR2B cDNA was subcloned as a Hind III-Not I fragment into the eukaryotic expression vector pCDNA3 (In Vitrogen) to generate pCDNA3/CC-CKR2A and pCDNA3/CCR2B respectively.
Linearised pCDNA3/CCR2B DNA was transfected into CHO-K1 cells by calcium phosphate precipitation (Wigler et al., 1979, Cell, 16, 777). Transfected cells were selected by the addition of Geneticin Sulphate (G418, Gibco BRL) at 1 mg/ml, 24 hours after the cells had been transfected. Preparation of RNA and Northern blotting were carried out as described previously (Needham et al., 1995, Prot. Express. Purific., 6, 134). CHO-K1 clone 7 (CHO-CCR2B) was identified as the highest MCP-1 receptor B expressor.
CHO-CCR2B cells were grown in DMEM supplemented with 10% foetal calf serum, 2 mM glutamine, 1× Non-Essential Amino Acids, 1× Hypoxanthine and Thymidine Supplement and Penicillin-Streptomycin (at 50 μg streptomycin/mi, Gibco BRL). […]

The IC50 is the concentration that inhibits the measured activity by half. Low values mean greater potency in that assay, high ones weaker potency in that assay. Compound `O=C(O)c1cc2ccccc2n1S(=O)(=O)c1ccc(Cl)c(Cl)c1` [Example 2.01, N-(3,4-Dichlorophenylsulphonyl)indole-2-carboxylic acid] came in with an IC50 of 10 µM.
